Each structure is given as a SMILES string.

The subject of experiment [1] is GFRα1-overexpressing MG-63 clone #4. Briefly: Colony-forming assay in the presence of cisplatin. The experiment is classed as cell-based, human. As to conditions: cisplatin 20 μM 10 days; 3-MA (10 μM), Baf (100 nM), CQ (30 μg/ml). The text has this: FIG. 3. […] Scale bar, 20 μm. […] Scale bar, 20 μm. […] Scale bar, 20 μm.
Experiment [2] concerns MG-63/GFRα1 tumors. Briefly: MG-63/GFRα1 xenograft in BALB/c nude mice. In kind it is in vivo. As to conditions: CQ 60 mg/kg, cisplatin 3 mg/kg, once a week. Here is the method:
FIG. 5. GFRα1-mediated autophagy promotes chemoresistance and tumor growth in vivo. (a) BALB/c nude mice (n =40) were injected with MG-63 cells that were transfected with either control or GFRα1 expressing vector. Tumor volume was measured every 3 or 4 days. Data are shown as mean±SEM. ** p<0.05. (b) BALB/c nude mice (n=20) were injected with MG-63 cells that were transfected with either control or GFRα1 shRNA. Tumor volume was measured every 3 or 4 days. Data are shown as mean±SEM. ** p<0.05. (c) Tumors that were generated from mice injected with MG-63 cells containing GFRα1 expressing vector were directly injected with PBS, CQ, cisplatin, or cisplatin+CQ. Tumor volume was measured every 4 days. Data are shown as mean±SEM. ** p<0.05 vs PBS, CQ, or cisplatin-treated tumors. (d) Left, representative images of immunofluorescence staining of HMGB1 in a section from tumors generated from mice injected with MG-63 cells containing GFRα1 expressing vector and then treated with PBS, CQ, cisplatin, or cisplatin+CQ. Right, quantitative analysis of percentage of cytoplasmic HMGB1-positive cells in HMGB1-positive tumors. The values are represented as a mean±s.d.m. (n=3). ** denotes p<0.05 by t-test. (e) Left, representative images of TUNEL-positive cells in a section from tumors generated from mice injected with MG-63 cells containing GFRα1 expressing vector and then treated with PBS, CQ, cisplatin, or cisplatin+CQ. Right, quantitative analysis of percentage of TUNEL-positive cells in HMGB1-positive tumors. The values are represented as a mean±s.d.m. (n=3). ** denotes p<0.05 by t-test. (0 Survival rate of mice injected with MG-63 cells containing GFRα1 expressing vector and then treated with either cisplatin or cisplatin+CQ. (g) Representative images of immunohistochemical staining of GFRα1 in a section from human osteosarcoma patient before and after cisplatin treatment. (h) Representative images of immunofluorescence staining of GFRα1 and HMGB1 in a section from human osteosarcoma patient before and after cisplatin treatment.
Tumor formation in nude mice. The mice used in this study were 6-week-old female BALB/c nude mice purchased from Orient Bio Inc. (Seongnam, Korea). […] The tumor size was measured with a caliper every 3 or 4 days. […] The tumor size was measured with a caliper every 4 days. […] were calculated from caliper measurements of tumor dimensions in mm using the formula for a prolate ellipsoid: (L×W^2)/2 where L is the longer of the two-measurements.
Statistical analysis. Survival data was analyzed by the Kaplan-Meier and log-rank test with GraphPad Prism v5.04 (GraphPad Software, La Jolla Calif.). Plating efficiency (PE, %)=(Number of colonies counted/Number of cells plated)×100. […] All values are expressed as the mean±standard deviation (SD). […]

In experiment [3] the test system is Src/AMPK signaling in MG-63 cells. In words: Immunoblot of Src/AMPK/mTOR signaling. The experiment is classed as cell-based, human. As to conditions: then cisplatin 20 μM 24 hr; for LC3-II expression: inhibitor. The method, then: FIG. 4. GFRα1 regulates autophagy by Src/AMPK signaling in osteosarcoma cells. (a-b) Immunoblot analysis of osteosarcoma cell lysates with antibodies specific for GFRα1, p-Src, Src, p-AMPK, AMPK, p-mTOR, mTOR, p-p70 S6Kinase, Beclin 1, HMGB1, LC3, and β-actin. (a) MG-63 and cells were treated with cisplatin (20 μM) for 24 hr. (b) Control and GFRα1-deficient MG-63 cells were treated with cisplatin (20 μM) for 24 hr. (c-e) Immunoblot analysis of osteosarcoma cell lysates with antibodies specific for GFRα1, p-Src, Src, p-AMPK, AMPK, LC3, and β-actin. (c) Control and Src-deficient MG-63 cells were treated with cisplatin (20 μM) for 24 hr. (d) MG-63 cells were cultured in the presence or absence of PP1 (5 μM) and then treated with cisplatin (20 μM) for 24 hr. (e) MG-63 cells were cultured in the presence or absence of Compound C and then treated with cisplatin (20 μM) for 24 hr. (f) Cell viability of MG-63 cells after cisplatin treatment in the presence of PP1. MG-63 cells were cultured with DMSO or PP1 (2, 5 μM) and then treated with cisplatin (20 μM) for 24 hr. Cell viability was measured using the WST-1 assay. The values are represented as a mean±s.d.m. (n=3). ** denotes p<0.05 by t-test. (g) Cell viability of MG-63 cells after cisplatin treatment in the presence of Compound C. MG-63 cells were cultured with DMSO or Compound C (5, 10 μM) and then treated with cisplatin (20 μM) for 24 hr. Cell viability was measured using the WST-1 assay. The values are represented as a mean±s.d.m. (n=3). ** denotes p<0.05 by t-test.
(§1) Immunoblotting. Cells were washed with PBS and lysed in RIPA Buffer (Pierce, Rockford, Ill.). The protein content was determined using a dye-binding microassay (Bio-Rad, Hercules, Calif.), and 10-50 μg protein per lane was electrophoresed on 4-12% SDS polyacrylamide gels. Proteins were blotted onto Hybond ECL membranes (Amersham Pharmacia Biotech, Piscataway, N.J.). Two protein ladders were used for molecular weight determination (GenDEPOT, Barker, Tex.). The blotted proteins were detected using an enhanced chemiluminescence detection system (iNtRON, Seoul, Korea). Data were quantified and analyzed with Image-J software.
A general note: Immunoblotting shows a protein as a band on a membrane.

The test system of experiment [4] is GFRα1 expression in MG-63 and U-2 OS cells. In words: Immunoblot of GFRα1 expression after chemotherapeutic agents. In kind it is cell-based, human. As to conditions: doxorubicin 5 μM, cisplatin 20 μM, methotrexate 1 mM, 24 hr. The method, then: FIG. 1. Cisplatin induces GFRα1 expression in osteosarcoma cells. (a-c) Immunoblot analysis of osteosarcoma cell lysates with antibodies specific for GFRα1 and β-actin. (a) MG-63 and U-2 OS cells were treated with doxorubicin (5 μM), cisplatin (20 μM), or methotrexate (1 mM) for 24 hr. Immunoblot analysis of GFRα1 (left) and quantification of GFRα1 expression (right) after treatment of chemotherapeutic agents. (b) MG-63 and U-2 OS cells were treated with different concentrations of cisplatin for 24 hr. (c) MG-63 and U-2 OS cells were treated with cisplatin (20 μM) and collected at the indicated time. (d and e) Quantitative real-time PCR of GFRα1 mRNA expression after cisplatin treatment. Representative images (top) and quantitative analysis (bottom) of GFRα1 mRNA expression. The values are presented as a mean±s.d.m (n=3). ** denotes p<0.05 by t-test. (d) MG-63 and U-2 OS cells were treated with different concentrations of cisplatin for 24 hr. (e) MG-63 and U-2 OS cells were treated with cisplatin (20 μM) and collected at the indicated time.
as §1

Experiment [5] deals with GFRα1-deficient MG-63 and U-2 OS cells. Briefly: WST-1 cell viability of GFRα1-deficient (siRNA) osteosarcoma cells. The experiment is classed as cell-based, human. As to conditions: GFRα1 siRNA 48 h, then agent 24 h. Here is the method: FIG. 6. Cell viability of GFRα1-deficient osteosarcoma cells after treatment of chemotherapeutic agents. MG-63 and U-2 OS cells were transfected with either control siRNA or GFRα1 siRNA for 48 h and then treated with different concentrations of doxorubicin, cisplatin, or methotrexate for 24 h. Cell viability was measured using the WST-1 assay. The values are represented as a mean±s.d.m. (n=3). ** denotes P<0.05 by t-test. (a) MG-63 cells. (b) U-2 OS cells.
Small interfering RNA (siRNA)-based Experiments. Human GFRα1 siRNA, Beclin 1 siRNA, HMGB1 siRNA, AMPK siRNA, c-Src siRNA, NFκB p50 siRNA, APE siRNA and Negative (control) siRNA were purchased from Santa Cruz Biotechnology. Cell lines were transiently transfected with siRNA duplexes using Lipofectamine® RNAiMAX (Life Technologies) according to manufacturer's instructions.
Cell viability assays. WST-1 cell viability assay reagent was purchased from Roche. Equal numbers of cells were seeded in triplicate wells in 48-well plates and maintained in growth medium containing 10% FBS). Cells were cultured with PBS, GDNF (50 ng/mL), GDNF (50 ng/ml)+cisplatin (20 μM), or cisplatin (20 μM) in the presence of serum for 24 hr. Cells were also preincubated with inhibitors (3-MA, PP1, Compound C, Baf and CQ) for 1 hr before stimulating with PBS, GDNF, GDNF+cisplatin, or cisplatin. WST-1 reagent was then treated to the cells at the indicated times and incubated for 2 hr at 37° C. Cell viability was determined by measuring the absorbance after adding WST-1. The spectrophotometric absorbance of the samples was measured using an Ultra Multifunctional Microplate Reader (Tecan, Durham, N.C.) at 450 nm. Experiments were done at least in triplicate using separate cultures.
On the technique in general: Tetrazolium assays rely on reduction of a dye to a coloured formazan, in cell work by metabolically active cells.

With `CCN(CC)CCCC(C)Nc1ccnc2cc(Cl)ccc12` (centres unmarked) [CQ, chloroquine], the number of colonies result in experiment [1] is given as “effectively reduced”. For the same compound, in experiment [2], the tumor progression result is “allowed the tumors to survive” and the “tumor volume compared to PBS-treated mice” value is recorded as “decreased”.

On to `Cc1ccc(-c2nn(C(C)(C)C)c3ncnc(N)c23)cc1` [PP1], for which the AMPK phosphoryation result in experiment [3] (PP1 5 μM) is reported as “decreased”. For the same compound, the LC3-II expression entry in experiment [3] is on record as “decreased”.

On to `c1cc(-c2cnn3cc(-c4ccc(OCCN5CCCCC5)cc4)cnc23)ccn1` [compound C], for which the Src phosphorylation entry in experiment [3] (Compound C) is reported as “no effect”. For the same compound, in experiment [3], the LC3-II expression entry is reported as “decreased”.

As to `COc1cccc2c1C(=O)c1c(O)c3c(c(O)c1C2=O)C[C@@](O)(C(=O)CO)C[C@@H]3O[C@H]1C[C@H](N)[C@H](O)[C@H](C)O1` [doxorubicin], in experiment [4], the “level of GFRα1 expression” value is listed as “no or little effect”. Moreover, the “cell proliferation of GFRα1-deficient cells compared to control cells” value in experiment [5] is “little or no effect”.

For the compound `CN(Cc1cnc2nc(N)nc(N)c2n1)c1ccc(C(=O)N[C@@H](CCC(=O)O)C(=O)O)cc1` [methotrexate], the “level of GFRα1 expression” value in experiment [4] is recorded as “no or little effect”. For the same compound, the “cell proliferation of GFRα1-deficient cells compared to control cells” value in experiment [5] is given as “little or no effect”.
